Test results: patent publication US20250177362A1, “HETEROCYCLIC GLP-1 AGONISTS” (Gasherbrum Bio, Inc., priority 2022, published 2025)

Target: T1, GLP-1 Receptor (Homo sapiens, UniProt P43220)
T1 construct: host or cells: HEK293/CRE-Luc (HEK293/GLPIR/CRE-LUC)
Assay: GLP-1R agonist cAMP stimulation assay
Format: cell-based
Settings: HEK293/CRE-Luc cell line stably expressing the GLP-1 Receptor; 30 min incubation; cAMP dynamic 2 Kit (Cisbio)
Protocol: Activation of GLP-1 receptor is known to stimulate cyclic AMP (cAMP) production in cells which indicates primary coupling to the Gas subunit of the G protein heterotrimeric complex.
To optimize functional activity directed toward Gas coupling, a HEK293/CRE-Luc cell line developed by HDB stably expressing the GLP-1 Receptor was used. 200× concentration of compound working solutions were prepared (Agilent Technologies Bravo) with ½ log serial dilution in 384-well Echo LDV plate (Labcyte, Cat #LP-0200). 50 nL/well 200× concentration of compound working solutions were moved to 384-well white low volume plate (Greiner, Cat #784075) using Labcyte ECHO550. 1×10^5 cells/mL HEK293/GLPIR/CRE-LUC (HD Biosciences) cell suspensions prepared with assay buffer [DPBS containing 0.5 mM IBMX (Sigma, Cat #15879) and 0.10% BSA (GENVIEW, Cat #FA016-100g)], 10 μL cell suspensions were added to each well of previous generated assay plate which already contains 50 nL compound at 200× concentration using ThermoFisher Multidrop Combi (1000 cells/well). Seal the plate and incubate at 37° C. with 5% CO2 for 30 min.
After incubation the cAMP assay signal was generated using cAMP dynamic 2 Kit (Cisbio). 5 μL cAMP-d2 working solution was added to each well, followed with 5 μL Anti-cAMP antibody-cryptate working solution added to each well using ThermoFisher Multidrop Combi. Incubate at room temperature for 1 hour protected from light. Read the fluorescence at 665 and 615 nm with Reader PerkinElmer EnVision.

T1 sequence (P43220 24-463, species assumed): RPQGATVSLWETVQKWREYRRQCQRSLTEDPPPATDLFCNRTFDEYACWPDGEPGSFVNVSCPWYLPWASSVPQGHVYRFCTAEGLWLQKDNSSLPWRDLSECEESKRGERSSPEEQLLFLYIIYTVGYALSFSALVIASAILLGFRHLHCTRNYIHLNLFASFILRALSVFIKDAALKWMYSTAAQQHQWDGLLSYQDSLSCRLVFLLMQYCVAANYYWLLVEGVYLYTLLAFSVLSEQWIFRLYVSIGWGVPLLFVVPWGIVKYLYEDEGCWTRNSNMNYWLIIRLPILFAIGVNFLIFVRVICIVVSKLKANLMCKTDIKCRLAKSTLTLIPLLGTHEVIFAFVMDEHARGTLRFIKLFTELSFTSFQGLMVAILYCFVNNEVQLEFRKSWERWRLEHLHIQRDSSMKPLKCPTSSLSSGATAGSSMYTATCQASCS

SMILES | EC50 [nM]
Cc1cc(-c2ccncc2)cnc1CN1CCC(c2cccc3c2OC(C)(c2ccc(Cl)cc2F)O3)CC1 (stereo not drawn) [E-14] | > 100
CC1COCCN1c1cc(-c2nnc(C(F)(F)F)[nH]2)nnc1CN1CCC(c2cccc3c2O[C@@](C)(c2ccc(Cl)cc2F)O3)CC1 (stereo partly drawn) [F-3, 4-[3-({4-[(2S)-2-(4-chloro-2-fluorophenyl)-2-methyl-2H-1,3-benzodioxol-4-yl]piperidin-1-yl}methyl)-6-[5-(trifluoromethyl)-4H-1,2,4-triazol-3-yl]pyridazin-4-yl]-3-methylmorpholine] | 1 to 100
C[C@]1(c2ccc(Cl)cc2F)Oc2cccc(C3CCN(Cc4ncc(-c5nnc(C(F)(F)F)[nH]5)cc4N4CCOC4=O)CC3)c2O1 [F-2, 3-[2-({4-[(2S)-2-(4-chloro-2-fluorophenyl)-2-methyl-2H-1,3-benzodioxol-4-yl]piperidin-1-yl}methyl)-5-[5-(trifluoromethyl)-4H-1,2,4-triazol-3-yl]pyridin-3-yl]-1,3-oxazolidin-2-one] | 1 to 100
Cc1cc(-c2nnc(-c3cccnc3)s2)cnc1CN1CCC(c2cccc(OCc3ccc(Cl)cc3F)n2)CC1 [E-16] | > 100
COCCc1cc(-c2nnc(C(=O)OC)[nH]2)cnc1CN1CCC(c2cccc3c2O[C@@](C)(c2ccc(Cl)cc2F)O3)CC1 [E-18] | 1 to 100
C[C@]1(c2ccc(Cl)cc2F)Oc2cccc(C3CCN(Cc4ncc(-c5nnc(C(F)(F)F)[nH]5)cc4N4CCNC(=O)C4)CC3)c2O1 [F-9] | 1 to 100
C[C@]1(c2ccc(C(N)=O)cc2F)Oc2cccc(C3CCN(Cc4ncc(-c5nnc(C(F)(F)F)[nH]5)cc4CC4(C#N)CC4)CC3)c2O1 [A-1] | < 1
COCCc1cc(-c2nnc(C(=O)O)[nH]2)cnc1CN1CCC(c2cccc3c2O[C@@](C)(c2ccc(Cl)cc2F)O3)CC1 [E-11] | > 100
C[C@]1(c2ccc(Cl)cc2F)Oc2cccc(C3CCN(Cc4ncc(-c5nnc(C(F)(F)F)[nH]5)cc4NC4CCCC4)CC3)c2O1 [F-11, (S)-2-((4-(2-(4-chloro-2-fluorophenyl)-2-methylbenzo[d][1,3]dioxol-4-yl)piperidin-1-yl)methyl)-N-cyclopentyl-5-(5-(trifluoromethyl)-4H-1,2,4-triazol-3-yl)pyridin-3-amine] | 1 to 100
COCCNC(=O)c1nnc(-c2cnc(CN3CCC(c4cccc5c4O[C@@](C)(c4ccc(Cl)cc4F)O5)CC3)c(CC3(C#N)CC3)c2)[nH]1 [E-3] | < 1
COc1cc(-c2nnn[nH]2)cnc1CN1CCC(c2cccc3c2OC(C)(c2ccc(Cl)cc2F)O3)CC1 (stereo not drawn) [F-20, 2-((4-(2-(4-chloro-2-fluorophenyl)-2-methylbenzo[d][1,3]dioxol-4-yl)piperidin-1-yl)methyl)-3-methoxy-5-(1H-tetrazol-5-yl)pyridine] | > 100
C[C@]1(c2ccc(Cl)cc2F)Oc2cccc(C3CCN(Cc4ncc(-c5nnc(C(=O)O)[nH]5)cc4CC4(C#N)CC4)CC3)c2O1 [E-19] | < 1
CC1CN(c2cc(-c3nnc(C(F)(F)F)[nH]3)nnc2CN2CCC(c3cccc4c3O[C@@](C)(c3ccc(Cl)cc3F)O4)CC2)CCO1 (stereo partly drawn) [F-17, 4-(3-((4-((S)-2-(4-chloro-2-fluorophenyl)-2-methylbenzo[d][1,3]dioxol-4-yl)piperidin-1-yl)methyl)-6-(5-(trifluoromethyl)-4H-1,2,4-triazol-3-yl)pyridazin-4-yl)-2-methylmorpholine] | 1 to 100
C[C@]1(c2ccc(Cl)cc2F)Oc2cccc(C3CCN(Cc4ncc(-c5nnc(C(F)(F)F)[nH]5)cc4CS(=O)(=O)C4CC4)CC3)c2O1 [F-16] | 1 to 100
N#CC1(Cc2cc(-c3nc(C(F)(F)F)n[nH]3)cnc2CN2CCC(c3ccc4cnn(Cc5ccc(Cl)cc5F)c4n3)CC2)CC1 [C-1] | < 1
